{"source": "patent US8815872B2", "about": "“Macrocyclics pyrimidines as aurora kinase inhibitors” (Merck Patent GmbH, priority 2008, dated 2014)", "assay_in_all_cases": "Other kinases, single-concentration inhibition (Table 3)", "format_in_all_cases": "biochemical", "settings_in_all_cases": "1 μM", "key": {"CDK2/cyclinA(h)": {"target": "T1, CDK2/cyclinA(h) (Homo sapiens, UniProt P24941)", "T1 construct": "purchased Caliper Life Sciences", "method_in_brief": "(§1)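 Phosphopeptide formation was followed by electrophoretic separation from unphosphorylated labelled substrate. Kinase was exposed to a single compound concentration with substrate/ATP for 90 min at 25 °C, then EDTA-quenched. Activity was scored as percent inhibition against positive and negative controls.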"}, "CHK1(h)": {"target": "T2, CHK1(h) (Homo sapiens, UniProt O14757)", "T2 construct": "purchased Caliper Life Sciences", "T2 sequence (O14757 whole entry)": "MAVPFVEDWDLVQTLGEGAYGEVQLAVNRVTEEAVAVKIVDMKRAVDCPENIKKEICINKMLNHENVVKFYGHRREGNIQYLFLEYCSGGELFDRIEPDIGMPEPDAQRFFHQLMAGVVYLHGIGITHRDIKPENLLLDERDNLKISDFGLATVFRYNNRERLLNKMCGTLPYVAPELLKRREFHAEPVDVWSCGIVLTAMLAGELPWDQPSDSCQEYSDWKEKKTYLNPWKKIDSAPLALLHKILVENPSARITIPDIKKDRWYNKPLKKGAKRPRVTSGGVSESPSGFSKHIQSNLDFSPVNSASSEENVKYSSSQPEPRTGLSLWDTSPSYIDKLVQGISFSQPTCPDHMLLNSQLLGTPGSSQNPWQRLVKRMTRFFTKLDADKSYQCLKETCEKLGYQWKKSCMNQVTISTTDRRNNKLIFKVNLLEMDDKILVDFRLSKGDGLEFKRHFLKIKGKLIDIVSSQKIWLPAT", "method_in_brief": "as §1"}, "CHK2(h)": {"target": "T3, CHK2(h) (Homo sapiens, UniProt O96017)", "T3 construct": "purchased Caliper Life Sciences", "T3 sequence (O96017 whole entry)": "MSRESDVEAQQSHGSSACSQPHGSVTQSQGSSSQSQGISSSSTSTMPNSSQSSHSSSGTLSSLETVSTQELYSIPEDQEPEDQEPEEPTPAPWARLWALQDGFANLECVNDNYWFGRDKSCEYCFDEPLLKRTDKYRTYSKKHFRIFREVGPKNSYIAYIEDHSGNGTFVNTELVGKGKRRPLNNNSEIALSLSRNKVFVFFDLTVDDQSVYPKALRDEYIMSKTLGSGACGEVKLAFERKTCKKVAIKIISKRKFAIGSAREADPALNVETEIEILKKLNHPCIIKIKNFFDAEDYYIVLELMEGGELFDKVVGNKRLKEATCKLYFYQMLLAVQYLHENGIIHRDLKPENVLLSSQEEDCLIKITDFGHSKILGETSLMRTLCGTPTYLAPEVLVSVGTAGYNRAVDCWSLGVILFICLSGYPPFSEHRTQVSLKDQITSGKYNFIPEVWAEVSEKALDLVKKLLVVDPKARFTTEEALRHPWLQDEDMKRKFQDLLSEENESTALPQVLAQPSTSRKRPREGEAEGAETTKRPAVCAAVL", "method_in_brief": "as §1"}, "DDR2(h)": {"target": "T4, DDR2(h) (Homo sapiens, UniProt Q16832)", "T4 construct": "purchased Caliper Life Sciences", "T4 sequence (Q16832 22-855)": "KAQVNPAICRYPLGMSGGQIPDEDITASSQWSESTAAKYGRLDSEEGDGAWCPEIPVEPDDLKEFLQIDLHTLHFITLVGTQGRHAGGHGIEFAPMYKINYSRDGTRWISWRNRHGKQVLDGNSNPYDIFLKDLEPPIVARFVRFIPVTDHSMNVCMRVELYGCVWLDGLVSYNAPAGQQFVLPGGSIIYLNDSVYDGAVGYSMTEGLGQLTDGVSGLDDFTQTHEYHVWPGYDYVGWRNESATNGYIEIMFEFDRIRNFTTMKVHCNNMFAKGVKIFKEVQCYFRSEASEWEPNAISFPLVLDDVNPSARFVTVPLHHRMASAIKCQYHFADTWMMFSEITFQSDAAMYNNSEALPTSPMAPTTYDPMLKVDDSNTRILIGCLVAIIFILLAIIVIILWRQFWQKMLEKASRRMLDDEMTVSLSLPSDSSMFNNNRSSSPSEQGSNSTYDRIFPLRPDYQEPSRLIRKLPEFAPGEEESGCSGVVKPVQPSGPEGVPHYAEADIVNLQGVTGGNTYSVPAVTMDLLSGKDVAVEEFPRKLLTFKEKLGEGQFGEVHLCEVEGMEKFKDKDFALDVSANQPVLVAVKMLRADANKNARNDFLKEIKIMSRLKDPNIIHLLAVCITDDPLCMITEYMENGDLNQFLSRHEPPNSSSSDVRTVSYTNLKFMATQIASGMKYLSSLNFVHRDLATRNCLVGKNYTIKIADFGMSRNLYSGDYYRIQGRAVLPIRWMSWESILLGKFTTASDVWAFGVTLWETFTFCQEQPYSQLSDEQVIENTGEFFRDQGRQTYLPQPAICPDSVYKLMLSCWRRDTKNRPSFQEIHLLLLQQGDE", "method_in_brief": "as §1"}, "FGFR1(h)": {"target": "T5, FGFR1(h) (Homo sapiens, UniProt P11362)", "T5 construct": "purchased Caliper Life Sciences", "method_in_brief": "as §1"}, "Flt4(h)": {"target": "T6, Flt4(h) (Homo sapiens, UniProt P35916)", "T6 construct": "purchased Caliper Life Sciences", "method_in_brief": "as §1"}, "Fms(h)": {"target": "T7, Fms(h) (Homo sapiens, UniProt P07333)", "T7 construct": "purchased Caliper Life Sciences", "method_in_brief": "as §1"}, "Lyn(h)": {"target": "T8, Lyn(h) (Homo sapiens, UniProt P07948)", "T8 construct": "purchased Caliper Life Sciences", "T8 sequence (P07948 whole entry)": "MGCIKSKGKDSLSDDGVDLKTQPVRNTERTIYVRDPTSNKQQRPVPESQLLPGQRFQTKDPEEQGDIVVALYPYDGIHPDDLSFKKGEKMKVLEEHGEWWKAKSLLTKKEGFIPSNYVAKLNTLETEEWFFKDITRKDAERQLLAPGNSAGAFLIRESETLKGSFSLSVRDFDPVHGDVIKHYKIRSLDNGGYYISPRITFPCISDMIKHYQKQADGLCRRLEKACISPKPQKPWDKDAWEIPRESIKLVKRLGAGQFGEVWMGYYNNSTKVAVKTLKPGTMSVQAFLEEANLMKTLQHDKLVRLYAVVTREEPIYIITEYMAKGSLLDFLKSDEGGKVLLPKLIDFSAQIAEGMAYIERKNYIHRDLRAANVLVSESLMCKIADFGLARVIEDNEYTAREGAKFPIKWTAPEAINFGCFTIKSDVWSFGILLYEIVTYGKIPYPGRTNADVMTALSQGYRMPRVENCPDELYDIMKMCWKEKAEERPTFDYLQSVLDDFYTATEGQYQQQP", "method_in_brief": "as §1"}, "PDGFRα(h)": {"target": "T9, PDGFRα(h) (Homo sapiens, UniProt P16234)", "T9 construct": "purchased Caliper Life Sciences", "method_in_brief": "as §1"}, "Plk1(h)": {"target": "T10, Plk1(h) (Homo sapiens, UniProt P53350)", "T10 construct": "purchased Caliper Life Sciences", "T10 sequence (P53350 whole entry)": "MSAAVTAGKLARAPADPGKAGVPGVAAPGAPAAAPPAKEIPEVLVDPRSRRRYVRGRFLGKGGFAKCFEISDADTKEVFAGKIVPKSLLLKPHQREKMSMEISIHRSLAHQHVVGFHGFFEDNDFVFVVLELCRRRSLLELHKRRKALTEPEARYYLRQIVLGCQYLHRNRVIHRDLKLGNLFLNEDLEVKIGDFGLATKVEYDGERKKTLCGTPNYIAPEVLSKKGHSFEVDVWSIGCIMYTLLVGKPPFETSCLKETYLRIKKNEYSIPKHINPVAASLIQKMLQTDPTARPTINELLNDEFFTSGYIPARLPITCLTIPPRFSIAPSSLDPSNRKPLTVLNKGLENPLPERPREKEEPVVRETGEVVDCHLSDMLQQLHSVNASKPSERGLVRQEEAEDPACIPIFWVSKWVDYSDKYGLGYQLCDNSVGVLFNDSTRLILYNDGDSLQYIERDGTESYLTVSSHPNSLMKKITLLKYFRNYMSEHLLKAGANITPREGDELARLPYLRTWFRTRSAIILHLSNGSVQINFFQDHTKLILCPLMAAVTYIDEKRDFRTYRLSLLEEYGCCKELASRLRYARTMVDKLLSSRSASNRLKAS", "method_in_brief": "as §1"}, "Plk3(h)": {"target": "T11, Plk3(h) (Homo sapiens, UniProt Q9H4B4)", "T11 construct": "purchased Caliper Life Sciences", "T11 sequence (Q9H4B4 whole entry)": "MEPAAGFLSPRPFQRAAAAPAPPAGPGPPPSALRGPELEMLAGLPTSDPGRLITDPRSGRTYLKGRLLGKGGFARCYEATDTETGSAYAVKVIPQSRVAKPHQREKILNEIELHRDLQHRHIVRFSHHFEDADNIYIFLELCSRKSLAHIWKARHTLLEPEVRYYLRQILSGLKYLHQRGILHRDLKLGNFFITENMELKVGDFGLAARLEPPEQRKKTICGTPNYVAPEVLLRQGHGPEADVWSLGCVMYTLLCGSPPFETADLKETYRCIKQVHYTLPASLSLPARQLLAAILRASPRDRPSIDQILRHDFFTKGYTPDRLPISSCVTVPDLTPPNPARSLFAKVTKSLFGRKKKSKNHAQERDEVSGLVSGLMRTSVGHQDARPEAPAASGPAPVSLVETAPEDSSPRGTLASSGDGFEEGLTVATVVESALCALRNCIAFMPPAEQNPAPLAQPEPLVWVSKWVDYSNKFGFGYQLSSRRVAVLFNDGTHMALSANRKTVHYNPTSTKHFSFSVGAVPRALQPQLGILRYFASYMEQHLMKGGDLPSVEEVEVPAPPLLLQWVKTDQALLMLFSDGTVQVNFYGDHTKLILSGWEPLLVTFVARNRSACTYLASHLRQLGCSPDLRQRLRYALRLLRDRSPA", "method_in_brief": "as §1"}, "SIK(h)": {"target": "T12, SIK(h) (Homo sapiens, UniProt P57059)", "T12 construct": "purchased Caliper Life Sciences", "method_in_brief": "as §1"}, "Yes(h)": {"target": "T13, Yes(h) (Homo sapiens, UniProt P07947)", "T13 construct": "purchased Caliper Life Sciences", "T13 sequence (P07947 whole entry)": "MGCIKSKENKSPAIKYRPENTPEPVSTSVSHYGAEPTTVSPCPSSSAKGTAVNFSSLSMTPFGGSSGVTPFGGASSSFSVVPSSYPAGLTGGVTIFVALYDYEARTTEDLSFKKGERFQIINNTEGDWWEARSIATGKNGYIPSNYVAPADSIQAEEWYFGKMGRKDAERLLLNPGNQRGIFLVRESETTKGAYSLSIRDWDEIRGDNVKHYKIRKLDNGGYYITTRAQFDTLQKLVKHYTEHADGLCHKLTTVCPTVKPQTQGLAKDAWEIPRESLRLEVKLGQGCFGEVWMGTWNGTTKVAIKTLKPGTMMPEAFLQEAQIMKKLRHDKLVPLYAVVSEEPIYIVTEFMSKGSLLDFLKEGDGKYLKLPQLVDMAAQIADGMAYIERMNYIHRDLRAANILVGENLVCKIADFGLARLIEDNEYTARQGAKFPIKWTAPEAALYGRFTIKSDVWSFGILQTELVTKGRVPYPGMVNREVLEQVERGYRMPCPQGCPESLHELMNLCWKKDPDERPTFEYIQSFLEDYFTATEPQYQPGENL", "method_in_brief": "as §1"}, "c-RAF(h)": {"target": "T14, c-RAF(h) (Homo sapiens, UniProt P04049)", "T14 construct": "purchased Caliper Life Sciences", "method_in_brief": "as §1"}, "cSRC(h)": {"target": "T15, cSRC(h) (Homo sapiens, UniProt P12931)", "T15 construct": "purchased Caliper Life Sciences", "T15 sequence (P12931 whole entry)": "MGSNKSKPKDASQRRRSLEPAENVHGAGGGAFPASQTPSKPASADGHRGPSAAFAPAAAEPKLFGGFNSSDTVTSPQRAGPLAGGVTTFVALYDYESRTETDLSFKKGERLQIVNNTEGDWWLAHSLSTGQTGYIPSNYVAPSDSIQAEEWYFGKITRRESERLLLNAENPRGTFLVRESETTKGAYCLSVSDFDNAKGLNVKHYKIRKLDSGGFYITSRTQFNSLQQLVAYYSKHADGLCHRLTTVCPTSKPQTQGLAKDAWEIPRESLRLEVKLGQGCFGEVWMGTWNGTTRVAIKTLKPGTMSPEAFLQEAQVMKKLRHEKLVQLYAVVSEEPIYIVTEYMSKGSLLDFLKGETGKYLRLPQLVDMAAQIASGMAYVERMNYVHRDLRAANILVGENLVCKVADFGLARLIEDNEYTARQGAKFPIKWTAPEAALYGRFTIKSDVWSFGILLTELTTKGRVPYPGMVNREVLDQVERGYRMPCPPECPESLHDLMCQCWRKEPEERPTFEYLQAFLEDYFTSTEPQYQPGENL", "method_in_brief": "as §1"}, "p70S6K(h)": {"target": "T16, p70S6K(h) (Homo sapiens, UniProt P23443)", "T16 construct": "purchased Caliper Life Sciences", "method_in_brief": "as §1"}}, "data": [{"smiles": "CN1CCN(c2ccc3cc2OCCS[C@@H]2C[C@@H]4C[C@H]2[C@@H](Nc2nc(ncc2F)N3)[C@H]4C(N)=O)CC1", "note": "[Example 22]", "values": [{"measurement": "% inhibition CDK2/cyclinA(h)", "setting": "CDK2/cyclinA(h)", "value": 96, "unit": "%"}, {"measurement": "% inhibition CHK1(h)", "setting": "CHK1(h)", "value": 101, "unit": "%"}, {"measurement": "% inhibition CHK2(h)", "setting": "CHK2(h)", "value": 64, "unit": "%"}, {"measurement": "% inhibition DDR2(h)", "setting": "DDR2(h)", "value": 96, "unit": "%"}, {"measurement": "% inhibition FGFR1(h)", "setting": "FGFR1(h)", "value": 5, "unit": "%"}, {"measurement": "% inhibition Flt4(h)", "setting": "Flt4(h)", "value": 11, "unit": "%"}, {"measurement": "% inhibition Fms(h)", "setting": "Fms(h)", "value": 82, "unit": "%"}, {"measurement": "% inhibition Lyn(h)", "setting": "Lyn(h)", "value": 12, "unit": "%"}, {"measurement": "% inhibition PDGFRα(h)", "setting": "PDGFRα(h)", "value": 87, "unit": "%"}, {"measurement": "% inhibition Plk1(h)", "setting": "Plk1(h)", "value": 87, "unit": "%"}, {"measurement": "% inhibition Plk3(h)", "setting": "Plk3(h)", "value": 104, "unit": "%"}, {"measurement": "% inhibition SIK(h)", "setting": "SIK(h)", "value": 25, "unit": "%"}, {"measurement": "% inhibition Yes(h)", "setting": "Yes(h)", "value": 2, "unit": "%"}, {"measurement": "% inhibition c-RAF(h)", "setting": "c-RAF(h)", "value": 107, "unit": "%"}, {"measurement": "% inhibition cSRC(h)", "setting": "cSRC(h)", "value": 16, "unit": "%"}, {"measurement": "% inhibition p70S6K(h)", "setting": "p70S6K(h)", "value": 83, "unit": "%"}]}]}
